Molecular target: MAPK14 (human) (UniProt Q16539)
Test: Inhibition of MAPK14 Kinase Activity

Chain of MAPK14 (human) (Q16539 whole entry, looked up): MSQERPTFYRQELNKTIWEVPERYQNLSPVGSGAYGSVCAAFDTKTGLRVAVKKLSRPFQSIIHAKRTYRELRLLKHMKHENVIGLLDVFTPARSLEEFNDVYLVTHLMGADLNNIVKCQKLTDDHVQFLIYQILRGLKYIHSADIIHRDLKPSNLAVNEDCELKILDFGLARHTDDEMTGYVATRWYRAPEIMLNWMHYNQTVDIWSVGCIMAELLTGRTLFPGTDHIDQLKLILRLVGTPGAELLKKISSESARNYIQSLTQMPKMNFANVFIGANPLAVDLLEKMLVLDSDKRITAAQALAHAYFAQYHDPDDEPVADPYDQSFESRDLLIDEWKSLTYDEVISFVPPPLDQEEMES

IC50, ≤ 1000 nM:
CCOC(=O)c1sc2c(ccc(=O)n2-c2ccc3[nH]ccc3c2)c1Nc1ccccc1C#N
NC(=O)c1sc2c(ccc(=O)n2-c2ccccc2)c1Nc1cc(Cl)cc(Cl)c1
CCOC(=O)c1sc2c(ccc(=O)n2-c2ccc(C(C)(C)O)cc2)c1Nc1ccccc1
CCNC(=O)c1sc2c(ccc(=O)n2-c2ccccc2)c1Nc1ccccc1
CCOC(=O)c1sc2c(ccc(=O)n2-c2ccc(F)cc2)c1Nc1cccc(C)c1C#N
CCOC(=O)c1sc2c(ccc(=O)n2-c2ccc(C(O)CO)cc2)c1Nc1ccccc1 (stereo not given)
Cc1cccc(Nc2c(C(N)=O)sc3c2ccc(=O)n3-c2ccc(S(C)(=O)=O)cc2)c1
O=C(NCCCN1CCOCC1)c1sc2c(ccc(=O)n2-c2ccccc2)c1Nc1ccccc1
NC(=O)c1sc2c(ccc(=O)n2-c2cccnc2)c1Nc1ccccc1
NC(=O)c1sc2c(ccc(=O)n2-c2ccccc2)c1Nc1cccc(OC(F)(F)F)c1
Cc1ccccc1-n1c(=O)ccc2c(Nc3ccc(F)cc3F)c(C(N)=O)sc21
NC(=O)c1sc2c(ccc(=O)n2-c2ccccc2)c1Nc1ccccc1OC(F)(F)F
Cc1cccc(Nc2c(C(N)=O)sc3c2ccc(=O)n3C2CC2)c1
Cc1cccc(Nc2c(C(N)=O)sc3c2ccc(=O)n3-c2ccc(F)cc2)c1
CCOC(=O)c1sc2c(ccc(=O)n2CC2CC2)c1Nc1ccccc1
CCN1CCN(C(=O)c2sc3c(ccc(=O)n3-c3ccccc3)c2Nc2ccccc2)CC1
CCc1cccc(Nc2c(C#N)sc3c2ccc(=O)n3-c2ccccc2)c1
CN(C)c1ccc(-n2c(=O)ccc3c(Nc4ccccc4)c(C(=O)NCCCn4ccnc4)sc32)cc1
C=Cc1ccc(-n2c(=O)ccc3c(Nc4ccc(F)cc4F)c(C(=O)OCC)sc32)cc1
CCOC(=O)c1sc2c(ccc(=O)n2CC2CC2)c1Nc1cccc(Br)c1
CCOC(=O)c1sc2c(ccc(=O)n2CCOCCOC)c1Nc1ccccc1
CCOC(=O)c1sc2c(ccc(=O)n2-c2ccccc2)c1Nc1cc(C)ccc1C#N
NC(=O)c1sc2c(ccc(=O)n2-c2ccccc2)c1Nc1cccc(SC(F)(F)F)c1
N#Cc1sc2c(ccc(=O)n2-c2ccccc2)c1Nc1ccc(F)cc1F
N#Cc1cccc(Nc2c(C(=O)N3CCCC3)sc3c2ccc(=O)n3-c2ccccc2)c1
N#Cc1ccccc1Nc1c(C(N)=O)sc2c1ccc(=O)n2-c1ccc(F)cc1
NC(=O)c1sc2c(ccc(=O)n2CC2CC2)c1Nc1ccc(F)c(Cl)c1
Cc1cccc(Nc2c(C#N)sc3c2ccc(=O)n3C2CC2)c1
Cc1cccc(Nc2c(C#N)sc3c2ccc(=O)n3-c2ccccc2)n1
Cc1cccc(Nc2c(C(N)=O)sc3c2ccc(=O)n3-c2ccc(F)cc2)c1C#N
N#Cc1sc2c(ccc(=O)n2CC2CC2)c1Nc1ccccc1
NC(=O)c1sc2c(ccc(=O)n2-c2ccccc2)c1Nc1cccc(O)c1
Cc1cc(=O)n(-c2ccccc2)c2sc(C(N)=O)c(Nc3ccccc3)c12
Cc1cc(Nc2c(C#N)sc3c2ccc(=O)n3-c2ccccc2)ccc1F
CCOC(=O)c1sc2c(ccc(=O)n2-c2ccc(SC)cc2)c1Nc1ccccc1C#N
NC(=O)c1sc2c(ccc(=O)n2-c2ccccc2Cl)c1Nc1ccccc1
CCOC(=O)c1sc2c(ccc(=O)n2-c2ccccc2)c1Nc1ccc(C#N)c(Cl)c1
CCN(CC)CCN(C)C(=O)c1sc2c(ccc(=O)n2-c2ccccc2)c1Nc1ccccc1
Cc1ccccc1Nc1c(C#N)sc2c1ccc(=O)n2-c1ccccc1
NC(=O)c1sc2c(ccc(=O)n2-c2ccsc2)c1Nc1ccccc1
N#Cc1sc2c(ccc(=O)n2-c2ccccc2)c1Nc1cccc(Br)c1
CON(C)C(=O)c1sc2c(ccc(=O)n2CC2CC2)c1Nc1ccccc1
CCOC(=O)c1sc2c(ccc(=O)n2-c2ccccc2)c1Nc1ccc(C#N)cc1
NC(=O)c1sc2c(ccc(=O)n2-c2ccccc2)c1Nc1cccc(Br)c1
Cc1cccc(Nc2c(C(N)=O)sc3c2ccc(=O)n3-c2ccccc2Cl)c1
CCOC(=O)c1sc2c(ccc(=O)n2-c2cccc(C)c2)c1Nc1ccc(F)c(C)c1
O=C(NCCN1CCCCC1)c1sc2c(ccc(=O)n2-c2ccccc2)c1Nc1ccccc1
Cc1cc(Nc2c(C#N)sc3c2ccc(=O)n3C2CC2)ccc1F
N#Cc1ccccc1Nc1c(C(N)=O)sc2c1ccc(=O)n2-c1ccc2[nH]ccc2c1
Cc1ccc(-n2c(=O)ccc3c(Nc4cccc(C)c4)c(C(N)=O)sc32)cc1
CCOC(=O)c1sc2c(ccc(=O)n2-c2ccc(S(C)(=O)=O)cc2)c1Nc1cccc(C)c1
CCOC(=O)c1sc2c(ccc(=O)n2-c2ccccc2)c1Nc1cccc(C#N)c1
C[S+]([O-])c1ccc(-n2c(=O)ccc3c(Nc4ccccc4C#N)c(C(N)=O)sc32)cc1 (stereo not given)
O=C(c1sc2c(ccc(=O)n2-c2ccccc2)c1Nc1ccccc1)N1CCCC1
N#Cc1sc2c(ccc(=O)n2-c2cccnc2)c1Nc1ccccc1
CNC(=O)c1sc2c(ccc(=O)n2-c2ccccc2)c1Nc1ccccc1
Cc1ccc(-n2c(=O)ccc3c(Nc4cccc(C)c4)c(C#N)sc32)cc1
Cc1cc(Nc2c(C(N)=O)sc3c2ccc(=O)n3C2CC2)ccc1F
Cc1c(Br)cccc1Nc1c(C#N)sc2c1ccc(=O)n2-c1ccccc1
CN(C)c1ccc(-n2c(=O)ccc3c(Nc4ccccc4)c(C(=O)N4CCCC4)sc32)cc1
CCOC(=O)c1sc2c(ccc(=O)n2-c2ccc3[nH]ccc3c2)c1Nc1ccccc1
Cc1cccc(Nc2c(C(N)=O)sc3c2ccc(=O)n3CC2CC2)c1
N#Cc1ccccc1Nc1c(C(N)=O)sc2c1ccc(=O)n2-c1ccsc1
CCOC(=O)c1sc2c(ccc(=O)n2-c2ccc(N(C)C)cc2)c1Nc1ccccc1
N#Cc1ccccc1Nc1c(C(N)=O)sc2c1ccc(=O)n2-c1ccccc1
CCOC(=O)c1sc2c(ccc(=O)n2-c2ccc(F)cc2)c1Nc1ccccc1C#N
CCOC(=O)c1sc2c(ccc(=O)n2-c2ccccc2)c1Nc1cccc(C)c1C#N
CCOC(=O)c1sc2c(ccc(=O)n2-c2ccccc2)c1Nc1ccccc1
CCOC(=O)c1sc2c(ccc(=O)n2-c2ccccc2)c1Nc1ccccc1C#N
Cc1ccc(Nc2c(C(N)=O)sc3c2ccc(=O)n3CC2CC2)c(C)c1
NC(=O)c1sc2c(ccc(=O)n2-c2ccccc2)c1Nc1cccc(Cl)c1
N#Cc1sc2c(ccc(=O)n2-c2ccc(OC[C@@H](O)CO)cc2)c1Nc1ccc(F)cc1F
Cc1cccc(Nc2c(C#N)sc3c2ccc(=O)n3-c2ccc(F)cc2)c1
Cc1cc(Nc2c(C(N)=O)sc3c2ccc(=O)n3-c2ccccc2C)ccc1F
Cc1ccc(C#N)c(Nc2c(C(N)=O)sc3c2ccc(=O)n3-c2ccccc2)c1

— the Kinase Knowledgebase extract (Sharma et al. 2016)
